Target: human TPH1 (Homo sapiens (Human), UniProt P17752)
Test: Biochemical in vitro assay using fluorescence readout (TPH1 inhibition)
Details: full length human TPH1, 40 μM L-tryptophan, 15° C., 60 minutes, fluorescence at 540 nm; mean if determined several times
Text: Biochemical In Vitro Assay Using Fluorescence Readout
To generate the enzyme, full length human TPH1 is cloned into the plasmid pET20b(+) (Novagen) and expressed in E. coli. The bacterial cells are ruptured by sonication on ice and the lysate is cleared by centrifugation. The resulting protein in the pellet is re-extracted and TPH1 is purified from the obtained lysate by affinity chromatography using a pterin cosubstrate analog immobilized to the resin of the column. The protein is further purified by size exclusion chromatography to remove protein aggregates. The activity of TPH1 is determined by using a fluorescence assay. The enzyme activity assay is carried out at 15° C. with atmosphere oxygen for the duration of 60 minutes in a volume of 64 μl. The reaction is carried out in a 0.1 M Tris-HCl buffer, adjusted to pH 7.6, containing 1 mM DTT, 0.2 mg/mL catalase, 100 μM (±)-6-methyl-5,6,7,8-tetrahydropterine dihydrochloride, 40 μM L-tryptophan, and 40-80 nM of TPH1. The reaction is started by bringing together L-tryptophan with all the other reaction substituents and stopped by quenching with perchloric acid (HClO4). The amount of 5-hydroxy-L-tryptophan produced during the enzymatic reaction is determined by fluorescence readout. Fluorescence, as determined at 540 nm when excited at 300 nm wavelength, increases proportionally to the 5-hydroxy-L-tryptophan formed. Compounds are prepared as 10 mM stock solution in DMSO, then diluted in 384-well plates using DMSO followed by a transfer of the dilutions into the assay plate. Fluorescence is measured for each well and the fluorescence at 540 nm wavelength is compared to the fluorescence of the vehicle in place of compound. Inhibitory activities of example compounds with respect to the TPH1 protein are determined by calculating the IC50 value (the concentration of compound needed to inhibit 50% of the enzyme activity). The calculated IC50 values may fluctuate depending on the daily biochemical assay performance. Fluctuations of this kind are known to those skilled in the art.

human TPH1, sequence (P17752 whole entry): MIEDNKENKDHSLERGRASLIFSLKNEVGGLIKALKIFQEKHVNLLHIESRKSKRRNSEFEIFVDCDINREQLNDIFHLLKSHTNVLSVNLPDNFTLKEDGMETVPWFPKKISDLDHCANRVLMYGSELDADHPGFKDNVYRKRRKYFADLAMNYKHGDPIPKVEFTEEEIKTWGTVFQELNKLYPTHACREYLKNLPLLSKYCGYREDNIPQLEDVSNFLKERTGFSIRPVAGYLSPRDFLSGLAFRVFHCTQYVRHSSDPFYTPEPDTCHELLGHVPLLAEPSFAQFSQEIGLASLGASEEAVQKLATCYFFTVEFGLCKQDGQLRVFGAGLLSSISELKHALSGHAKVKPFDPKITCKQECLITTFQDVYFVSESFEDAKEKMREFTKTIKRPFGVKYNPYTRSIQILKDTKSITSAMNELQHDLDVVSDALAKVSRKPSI

**Q.** For `Cc1nn2c3c(nc2s1)CCN(C(=O)COc1ccc(N2CCOCC2)nc1Cl)C3c1sc(-c2nnn[nH]2)cc1F` (centres unmarked) [Example 1.70.1, 2-((2-Chloro-6-morpholinopyridin-3-yl)oxy)-1-(5-(3-fluoro-5-(1H-tetrazol-5-yl)thiophen-2-yl)-2-methyl-7,8-dihydro-[1,3,4]thiadiazolo[2′,3′:2,3]imidazo-[4,5-c]pyridin-6(5H)-yl)ethanone], which IC50 is on record?
**A.** Its IC50 is 13 nM.

**Q.** Which IC50 does the source give for `Cc1nn2c3c(nc2s1)CCN(C(=O)COc1ccc(N2CCOCC2)nc1Cl)C3c1cc(C(=O)N(C)C)cs1` (centres unmarked) [Example 1.9.1, 5-(6-(2-((2-chloro-6-morpholinopyridin-3-yl)oxy)acetyl)-2-methyl-5,6,7,8-tetrahydro-[1,3,4]thiadiazolo[2′,3′:2,3]imidazo[4,5-c]pyridin-5-yl)-N,N-dimethyl-thiophene-3-carboxamide] here?
**A.** Its IC50 is 5 nM.

**Q.** With `Cc1nn2c3c(nc2s1)CCN(C(=O)COc1ccc(C(=O)NO)nc1Cl)C3c1ccc(Cl)cc1F` (centres unmarked) [Example 1.4.25, 6-Chloro-5-(2-(5-(4-chloro-2-fluorophenyl)-2-methyl-7,8-dihydro-[1,3,4]thiadiazolo[2′,3′:2,3]imidazo[4,5-c]pyridin-6(5H)-yl)-2-oxoethoxy)-N-hydroxy-picolinamide] as the molecule, how does the IC50 read?
**A.** Its IC50 is 14 nM.

**Q.** `Cc1nn2c3c(nc2s1)CCN(C(=O)COc1ccc(N2CCOCC2)nc1Cl)C3c1csc(C(=O)O)c1` (centres unmarked) [Example 1.38.1, 4-(6-(2-((2-Chloro-6-morpholinopyridin-3-yl)oxy)acetyl)-2-methyl-5,6,7,8-tetrahydro-[1,3,4]thiadiazolo[2′,3′:2,3]imidazo[4,5-c]pyridin-5-yl)thiophene-2-carboxylic acid] was tested. Which IC50 did it give?
**A.** Its IC50 is 113 nM.

Same assay, conditions: human TPH1, fluorescence readout

**Q.** How did the IC50 turn out when `Cc1nn2c3c(nc2s1)CCN(C(=O)COc1ccc(NS(C)(=O)=O)nc1Cl)C3c1ccc(Cl)cc1F` (centres unmarked) [Example 1.4.39, N-(6-chloro-5-(2-(5-(4-chloro-2-fluorophenyl)-2-methyl-7,8-dihydro-[1,3,4]thiadiazolo[2′,3′:2,3]imidazo[4,5-c]pyridin-6(5H)-yl)-2-oxoethoxy)pyridin-2-yl)methanesulfonamide] was run?
**A.** The IC50 was 5 nM.

**Q.** `CCc1c(OCC(=O)N2CCc3nc4sc(C)nn4c3C2c2ccc(C3CC3)cc2F)ccc(C)[n+]1[O-]` (centres unmarked) [Example 1.6.20, 3-(2-(5-(4-cyclopropyl-2-fluorophenyl)-2-methyl-7,8-dihydro-[1,3,4]thiadiazolo[2′,3′:2,3]imidazo[4,5-c]pyridin-6(5H)-yl)-2-oxoethoxy)-2-ethyl-6-methylpyridine-1-oxide] was tested. Which IC50 did it give?
**A.** Its IC50 is 94 nM.

**Q.** Which IC50 does the source give for `O=C(COc1ccc(Cl)cc1Cl)N1CCc2nc3sccn3c2C1c1nc2ccccc2s1` (centres unmarked) [Example 6.12.3, 1-(5-(benzo[d]thiazol-2-yl)-7,8-dihydrothiazolo-[2′,3′:2,3]imidazo[4,5-c]pyridin-6(5H)-yl)-2-(2,4-dichlorophenoxy)ethanone] here?
**A.** The IC50 was 20 nM.

**Q.** With `Cc1cnc(C2c3c(nc4sc(C)nn34)CCN2C(=O)COc2ccc(C#N)nc2Cl)c(F)c1` (centres unmarked) [Example 1.31.3, 6-chloro-5-(2-(5-(3-fluoro-5-methylpyridin-2-yl)-2-methyl-7,8-dihydro-[1,3,4]thiadiazolo[2′,3′:2,3]imidazo[4,5-c]pyridin-6(5H)-yl)-2-oxoethoxy)picolinonitrile] as the molecule, how does the IC50 read?
**A.** Its IC50 is 36 nM.

**Q.** With `Cc1nn2c3c(nc2s1)CCN(C(=O)COc1c(F)cc(N2CCOCC2)nc1Cl)C3c1ncc(C2CC2)cc1F` (centres unmarked) [Example 1.14.12, 2-((2-chloro-4-fluoro-6-morpholinopyridin-3-yl)oxy)-1-(5-(5-cyclopropyl-3-fluoropyridin-2-yl)-2-methyl-7,8-dihydro-[1,3,4]thiadiazolo[2′,3′:2,3]imidazo[4,5-c]pyridin-6(5H)-yl)ethanone] as the molecule, how does the IC50 read?
**A.** The IC50 was 41 nM.

**Q.** With `CCc1nc(NS(C)(=O)=O)ccc1OCC(=O)N1CCc2nc3sc(C)nn3c2C1c1sccc1F` (centres unmarked) [Example 1.71.2, N-(6-ethyl-5-(2-(5-(3-fluorothiophen-2-yl)-2-methyl-7,8-dihydro-[1,3,4]thiadiazolo[2′,3′:2,3]imidazo[4,5-c]pyridin-6(5H)-yl)-2-oxoethoxy)pyridin-2-yl)methanesulfonamide] as the molecule, how does the IC50 read?
**A.** The IC50 was 7 nM.

**Q.** For `Cc1nn2c3c(nc2s1)CCN(C(=O)COc1ccc(C(F)(F)F)nc1Cl)C3c1sccc1F` (centres unmarked) [Example 1.23.3, 2-((2-chloro-6-(trifluoromethyl)pyridin-3-yl)oxy)-1-(5-(3-fluorothiophen-2-yl)-2-methyl-7,8-dihydro-[1,3,4]thiadiazolo [2′,3′:2,3]imidazo[4,5-c]pyridin-6(5H)-yl)ethanone], which IC50 is on record?
**A.** Its IC50 is 20 nM.

**Q.** `CCc1ncccc1OCC(=O)N1CCc2nc3sc(C)nn3c2C1c1coc(-c2ccccc2)n1` (centres unmarked) [Example 1.12.2, 2-((2-ethylpyridin-3-yl)oxy)-1-(2-methyl-5-(2-phenyloxazol-4-yl)-7,8-dihydro-[1,3,4]thiadiazolo[2′,3′:2,3]imidazo[4,5-c]pyridin-6(5H)-yl)ethanone] was tested. Which IC50 did it give?
**A.** The IC50 was 336 nM.

**Q.** Which IC50 does the source give for `Cc1nn2c3c(nc2s1)CCN(C(=O)COc1ccc(NS(=O)(=O)N(C)C)nc1Cl)C3c1ccc(Cl)cc1F` (centres unmarked) [Example 1.4.50, N-(6-chloro-5-(2-(5-(4-chloro-2-fluorophenyl)-2-methyl-7,8-dihydro-[1,3,4]thiadiazolo[2′,3′:2,3]imidazo[4,5-c]pyridin-6(5H)-yl)-2-oxoethoxy)pyridin-2-yl)-N′,N′-dimethyl-sulfamide] here?
**A.** Its IC50 is 78 nM.

**Q.** For `Cc1ncc(OCC(=O)N2CCc3nc4sc(C)nn4c3C2c2ccc(C3CC3)cc2F)c(C)n1` (centres unmarked) [Example 1.6.27, 1-(5-(4-cyclopropyl-2-fluorophenyl)-2-methyl-7,8-dihydro-[1,3,4]thiadiazolo[2′,3′:2,3]imidazo[4,5-c]pyridin-6(5H)-yl)-2-((2,4-dimethylpyrimidin-5-yl)oxy)ethanone], which IC50 is on record?
**A.** Its IC50 is 161 nM.

**Q.** With `CCc1cc(Cl)ccc1OCC(=O)N1CCc2nc3sccn3c2C1c1c(C)noc1C` (centres unmarked) [Example 6.5.5, 2-(4-chloro-2-ethylphenoxy)-1-(5-(3,5-dimethylisoxazol-4-yl)-7,8-dihydrothiazolo[2′,3′:2,3]imidazo[4,5-c]pyridin-6(5H)-yl)ethanone] as the molecule, how does the IC50 read?
**A.** The IC50 was 135 nM.

**Q.** With `CCc1nc(C(F)F)ccc1OCC(=O)N1CCc2nc3sc(C)nn3c2C1c1ccc(Cl)cc1F` (centres unmarked) [Example 1.4.6, 1-(5-(4-chloro-2-fluorophenyl)-2-methyl-7,8-dihydro-[1,3,4]thiadiazolo[2′,3′:2,3]imidazo[4,5-c]pyridin-6(5H)-yl)-2-((6-(difluoromethyl)-2-ethylpyridin-3-yl)oxy)ethanone] as the molecule, how does the IC50 read?
**A.** The IC50 was 11 nM.

**Q.** For `O=C(COc1cccnc1Cl)N1CCc2nc3sccn3c2C1c1ccc(C(F)F)cc1F` (centres unmarked) [Example 6.16.3, 2-((2-chloropyridin-3-yl)oxy)-1-(5-(4-(difluoromethyl)-2-fluorophenyl)-7,8-dihydrothiazolo[2′,3′:2,3]imidazo[4,5-c]pyridin-6(5H)-yl)ethanone], which IC50 is on record?
**A.** The IC50 was 15 nM.

**Q.** `O=C(COc1ccccc1C(F)(F)F)N1CCc2nc3sccn3c2C1c1cccnc1F` (centres unmarked) [Example 6.2.2, 1-(5-(2-fluoropyridin-3-yl)-7,8-dihydrothiazolo[2′,3′:2,3]-imidazo[4,5-c]pyridin-6(5H)-yl)-2-(2-(trifluoromethyl)-phenoxy)ethanone] was tested. Which IC50 did it give?
**A.** Its IC50 is 81 nM.

**Q.** `O=C(COc1ccc(CN2CCOCC2)cc1Cl)N1CCc2nc3sccn3c2C1c1cccnc1F` (centres unmarked) [Example 6.2.1, 2-(2-chloro-4-(morpholinomethyl)phenoxy)-1-(5-(2-fluoropyridin-3-yl)-7,8-dihydrothiazolo[2′,3′:2,3]imidazo[4,5-c]pyridin-6(5H)-yl)ethanone] was tested. Which IC50 did it give?
**A.** The IC50 was 12 nM.

**Q.** Which IC50 does the source give for `O=C(COc1cccnc1Cl)N1CCc2nc3sccn3c2C1c1nc2ccccc2s1` (centres unmarked) [Example 6.12.6, 1-(5-(benzo[d]thiazol-2-yl)-7,8-dihydrothiazolo-[2′,3′:2,3]imidazo[4,5-c]pyridin-6(5H)-yl)-2-((2-chloropyridin-3-yl)oxy)ethanone] here?
**A.** Its IC50 is 101 nM.

**Q.** How did the IC50 turn out when `COC(C)(C)c1ccc(C2c3c(nc4sc(C)nn34)CCN2C(=O)COc2ccc(C(=O)NC3CC3)nc2Cl)c(F)c1` (centres unmarked) [Example 1.81.1, 6-chloro-N-cyclopropyl-5-(2-(5-(2-fluoro-4-(2-methoxypropan-2-yl)phenyl)-2-methyl-7,8-dihydro-[1,3,4]thiadiazolo[2′,3′:2,3]imidazo[4,5-c]pyridin-6(5H)-yl)-2-oxoethoxy)picolinamide] was run?
**A.** Its IC50 is 27 nM.

**Q.** With `Cc1nc(C)c(C2c3c(nc4sc(C)nn34)CCN2C(=O)COc2ccc(N3CCOCC3)nc2Cl)o1` (centres unmarked) [Example 1.66.1, 2-((2-chloro-6-morpholinopyridin-3-yl)oxy)-1-(5-(2,4-dimethyloxazol-5-yl)-2-methyl-7,8-dihydro-[1,3,4]thiadiazolo [2′,3′:2,3]imidazo[4,5-c]pyridin-6(5H)-yl)ethanone] as the molecule, how does the IC50 read?
**A.** The IC50 was 13 nM.

**Q.** Which IC50 does the source give for `CNC(=O)c1cc(F)c(C2c3c(nc4sc(C)nn34)CCN2C(=O)COc2ccc(C#N)cc2Cl)s1` (centres unmarked) [Example 1.25.8, 5-(6-(2-(2-chloro-4-cyanophenoxy)acetyl)-2-methyl-5,6,7,8-tetrahydro-[1,3,4]thiadiazolo[2′,3′:2,3]imidazo[4,5-c]pyridin-5-yl)-4-fluoro-N-methylthiophene-2-carboxamide] here?
**A.** Its IC50 is 43 nM.

— patent US9765092B2, “Tricyclic piperidine compounds” (ACTELION PHARMACEUTICALS LTD, priority 2013, dated 2017)
